Test results: patent publication US20050181376A1, “Antisense modulation of microsomal triglyceride transfer protein expression” (ISIS Pharmaceuticals, Inc., priority 2001, published 2005)
Strand notation (5' to 3'): a small letter for the sugar, then the base; units joined by * are phosphorothioate-linked, units joined directly phosphodiester-linked; [ ] holds rarer units or linkages, { } end groups; capitals alone tell only the bases. e = 2'-O-(2-methoxyethyl) (MOE); [5mC] = 5-methylcytosine; d = 2'-deoxy (DNA)

What follows are substances tested on human microsomal triglyceride transfer protein mRNA (assay: Antisense inhibition of human microsomal triglyceride transfer protein mRNA levels, quantitative real-time PCR). Details: averages from two experiments.

For “CCAGTTGTGTGACCTTTAAC (antisense e[5mC]*e[5mC]*eA*eG*eT*dT*dG*dT*dG*dT*dG*dA*d[5mC]*d[5mC]*dT*eT*eT*eA*eA*e[5mC]) [ISIS 144410]”, the “% INHIB (inhibition of human microsomal triglyceride transfer protein mRNA levels)” value was “at least 30%”.
In the case of “GTACTGGTTTCCAGGCCAGC (antisense eG*eT*eA*e[5mC]*eT*dG*dG*dT*dT*dT*d[5mC]*d[5mC]*dA*dG*dG*e[5mC]*e[5mC]*eA*eG*e[5mC]) [ISIS 144437]”, the “% INHIB (inhibition of human microsomal triglyceride transfer protein mRNA levels)” value is reported as “at least 30%”.

Compared with “144409 (eT*e[5mC]*eA*eT*eA*dT*dT*dG*dA*d[5mC]*d[5mC]*dA*dG*d[5mC]*dA*eA*eT*e[5mC]*e[5mC]*eT; antisense) [compound 144409]”, “144424 (eA*eG*e[5mC]*eA*eG*dA*dT*dA*d[5mC]*dA*dT*d[5mC]*d[5mC]*dT*dG*eG*eT*eG*eT*e[5mC]; antisense) [compound 144424]” is lower in “% INHIB (inhibition of human microsomal triglyceride transfer protein mRNA levels)” value: 31% for the first, 23% for the second.

Going from “144445 (eG*eA*eT*eT*eT*dG*dA*dG*dA*dG*dA*dG*dG*dT*dA*eT*eA*eA*eG*eT; antisense) [compound 144445]” to “144414 (eG*eA*eT*eT*eA*dG*dA*dT*dG*dA*dA*dG*dG*dA*dG*e[5mC]*eG*eT*eA*eG; antisense) [compound 144414]”, the “% INHIB (inhibition of human microsomal triglyceride transfer protein mRNA levels)” value falls from 18% to 0%.

Each substance was assayed on mouse microsomal triglyceride transfer protein mRNA (assay: Antisense inhibition of mouse microsomal triglyceride transfer protein mRNA levels in primary hepatocytes, quantitative real-time PCR). Details: averages from two experiments.
Type: cell-based
Design: concentration or dose not given beside the values
Method: Primary mouse hepatocytes were prepared from CD-1 mice purchased from Charles River Labs (Wilmington, Mass.) and were routinely cultured in Hepatocyte Attachment Media (Gibco) supplemented with 10% Fetal Bovine Serum (Gibco/Life Technologies, Gaithersburg, Md.), 250 nM dexamethasone (Sigma), and 10 nM bovine insulin (Sigma). Cells were seeded into 96-well plates (Falcon-Primaria #3872) at a density of 10000 cells/well for use in RT-PCR analysis.
Cells were harvested 16-24 hours after oligonucleotide treatment.
All cytidine residues are 5-methylcytidines. […] Data are averages from two experiments. If present, “N.D.” indicates “no data”.

Compared with “144498 (eT*eG*eA*e[5mC]*eA*dT*dG*d[5mC]*d[5mC]*dA*dG*d[5mC]*dA*dT*dA*eA*eG*eA*eG*eT; antisense) [compound 144498]”, “144494 (eA*eA*eG*eG*e[5mC]*dT*dG*dT*dA*dT*dG*dT*dG*dG*dA*e[5mC]*eG*e[5mC]*eT*eG; antisense) [compound 144494]” is lower in “% INHIB (inhibition of mouse microsomal triglyceride transfer protein mRNA levels)” value: 44% for the first, 27% for the second.

Going from “144478 (e[5mC]*e[5mC]*e[5mC]*eT*eG*dG*dT*d[5mC]*dT*d[5mC]*dT*dT*d[5mC]*dT*dG*e[5mC]*eA*eA*eG*e[5mC]; antisense) [compound 144478]” to “144487 (e[5mC]*e[5mC]*e[5mC]*eA*eG*dG*dA*dT*d[5mC]*dA*dG*d[5mC]*dT*dT*d[5mC]*eT*eT*eA*eG*e[5mC]; antisense) [compound 144487]”, the “% INHIB (inhibition of mouse microsomal triglyceride transfer protein mRNA levels)” value falls from 41% to 19%.

Compared with “144485 (e[5mC]*eT*e[5mC]*eT*eG*dA*dT*dG*dT*d[5mC]*dG*dT*dT*dG*d[5mC]*eT*eT*eG*e[5mC]*eA; antisense) [compound 144485]”, “144468 (eG*eA*eT*e[5mC]*eA*dT*dG*d[5mC]*dT*dG*dG*d[5mC]*dT*d[5mC]*d[5mC]*e[5mC]*eT*e[5mC]*eT*eG; antisense) [compound 144468]” is lower in “% INHIB (inhibition of mouse microsomal triglyceride transfer protein mRNA levels)” value: 50% for the first, 0% for the second.

“144504 (eG*eA*eA*e[5mC]*eT*d[5mC]*d[5mC]*dA*dG*d[5mC]*d[5mC]*d[5mC]*dA*dG*d[5mC]*e[5mC]*eT*e[5mC]*eT*eG; antisense) [compound 144504]” and “144507 (eT*e[5mC]*eT*e[5mC]*eA*dG*dA*dG*dT*dT*d[5mC]*dT*dG*dT*dT*eG*eA*eT*eG*eG; antisense) [compound 144507]” are the same in “% INHIB (inhibition of mouse microsomal triglyceride transfer protein mRNA levels)” value: 0% for the first, 0% for the second.

First: 144479 (e[5mC]*eA*e[5mC]*e[5mC]*eT*dG*d[5mC]*d[5mC]*dA*d[5mC]*dT*dT*dG*d[5mC]*dT*eT*e[5mC]*e[5mC]*e[5mC]*eG; antisense) [compound 144479]
Second: 144489 (eG*eT*eG*eG*e[5mC]*dT*dG*dA*d[5mC]*dG*dG*dG*d[5mC]*d[5mC]*d[5mC]*eT*eT*e[5mC]*eT*e[5mC]; antisense) [compound 144489]
The “% INHIB (inhibition of mouse microsomal triglyceride transfer protein mRNA levels)” value of the first is higher: 65% for the first, 42% for the second.

Compared with “144473 (eG*e[5mC]*e[5mC]*eT*e[5mC]*d[5mC]*dA*dG*dG*dT*dT*dG*dT*d[5mC]*d[5mC]*eT*eT*e[5mC]*e[5mC]*e[5mC]; antisense) [compound 144473]”, “144470 (eG*eT*eA*eG*e[5mC]*d[5mC]*d[5mC]*dA*d[5mC]*dG*d[5mC]*dT*dG*dT*d[5mC]*eT*eT*eG*e[5mC]*eG; antisense) [compound 144470]” is higher in “% INHIB (inhibition of mouse microsomal triglyceride transfer protein mRNA levels)” value: 1% for the first, 5% for the second.

Compared with “144510 (eG*eG*eT*e[5mC]*eT*dT*d[5mC]*dT*d[5mC]*d[5mC]*dT*dG*dA*dA*dT*eA*eG*eG*eT*eT; antisense) [compound 144510]”, “144475 (eT*eG*eG*eA*eA*dT*dA*dA*dG*d[5mC]*dT*dA*dG*d[5mC]*d[5mC]*eA*eA*eG*e[5mC]*e[5mC]; antisense) [compound 144475]” is higher in “% INHIB (inhibition of mouse microsomal triglyceride transfer protein mRNA levels)” value: 0% for the first, 18% for the second.

Going from “144495 (e[5mC]*eA*eG*eA*eA*dT*dG*d[5mC]*d[5mC]*dA*dG*dA*dG*d[5mC]*d[5mC]*eA*eG*eA*eG*eT; antisense) [compound 144495]” to “144483 (e[5mC]*eA*eG*eA*eG*dG*dT*dG*dA*d[5mC]*dG*dG*d[5mC]*dA*dT*e[5mC]*e[5mC]*eA*e[5mC]*e[5mC]; antisense) [compound 144483]”, the “% INHIB (inhibition of mouse microsomal triglyceride transfer protein mRNA levels)” value falls from 42% to 22%.

First: 144509 (eA*e[5mC]*eT*eG*eT*dG*d[5mC]*dT*d[5mC]*dT*d[5mC]*dA*dG*dA*dG*eA*eG*e[5mC]*eA*eA; antisense) [compound 144509]
Second: 144488 (e[5mC]*eA*eG*e[5mC]*e[5mC]*dT*d[5mC]*dA*dG*d[5mC]*dA*dT*dA*d[5mC]*dT*eT*e[5mC]*eA*eG*eA; antisense) [compound 144488]
The “% INHIB (inhibition of mouse microsomal triglyceride transfer protein mRNA levels)” value of the first is lower: 0% for the first, 35% for the second.

Compared with “144503 (eG*eT*eT*eA*eT*d[5mC]*dA*d[5mC]*d[5mC]*dA*d[5mC]*dA*dG*d[5mC]*d[5mC]*eA*e[5mC]*e[5mC]*e[5mC]*eG; antisense) [compound 144503]”, “144480 (eG*e[5mC]*eT*e[5mC]*eG*dA*dG*dG*dA*d[5mC]*d[5mC]*dT*dG*dT*d[5mC]*e[5mC]*e[5mC]*eA*e[5mC]*eA; antisense) [compound 144480]” is higher in “% INHIB (inhibition of mouse microsomal triglyceride transfer protein mRNA levels)” value: 50% for the first, 51% for the second.

Going from “144505 (eA*eG*e[5mC]*e[5mC]*eT*dT*dG*dT*d[5mC]*d[5mC]*dA*dT*d[5mC]*dT*dG*e[5mC]*eA*eT*eG*e[5mC]; antisense) [compound 144505]” to “144474 (eT*eA*eG*eA*eA*d[5mC]*dT*d[5mC]*d[5mC]*dT*dT*dG*dA*d[5mC]*d[5mC]*eT*eT*e[5mC]*e[5mC]*e[5mC]; antisense) [compound 144474]”, the “% INHIB (inhibition of mouse microsomal triglyceride transfer protein mRNA levels)” value falls from 24% to 16%.

First: 144469 (eG*eA*eG*eT*eA*d[5mC]*dG*dT*dG*dA*dG*d[5mC]*dT*dT*dG*eT*eA*eT*eA*eG; antisense) [compound 144469]
Second: 144497 (e[5mC]*eT*e[5mC]*eT*e[5mC]*d[5mC]*dT*dT*d[5mC]*dA*dT*d[5mC]*dA*dG*dG*eA*eG*eT*eG*eG; antisense) [compound 144497]
The “% INHIB (inhibition of mouse microsomal triglyceride transfer protein mRNA levels)” value of the first is lower: 0% for the first, 57% for the second.

With “TTCCAGTGCTCCGCCAGAGA (all phosphorothioate, sugars by position and methylation of C not given here; 2'-MOE wings and deoxy gap) [ISIS 144481, 2′-MOE gapmer phosphorothioate antisense oligonucleotide to mouse MTP]” the “% INHIB (inhibition of mouse microsomal triglyceride transfer protein mRNA levels)” value was “at least 30%”.
“CCTGGAGTATGATACTGCTG (all phosphorothioate, sugars by position and methylation of C not given here; 2'-MOE wings and deoxy gap) [ISIS 144484, 2′-MOE gapmer phosphorothioate antisense oligonucleotide to mouse MTP]” was tested, and the “% INHIB (inhibition of mouse microsomal triglyceride transfer protein mRNA levels)” value was “at least 30%”.
For “ATTCTGACACAGCTTCCTGA (all phosphorothioate, sugars by position and methylation of C not given here; 2'-MOE wings and deoxy gap) [ISIS 144486, 2′-MOE gapmer phosphorothioate antisense oligonucleotide to mouse MTP]”, the “% INHIB (inhibition of mouse microsomal triglyceride transfer protein mRNA levels)” value was “at least 30%”.
With “GTGGCTGACGGGCCCTTCTC (all phosphorothioate, sugars by position and methylation of C not given here; 2'-MOE wings and deoxy gap) [ISIS 144489, 2′-MOE gapmer phosphorothioate antisense oligonucleotide to mouse MTP]” the “% INHIB (inhibition of mouse microsomal triglyceride transfer protein mRNA levels)” value was “at least 30%”.
For “TGACATGCCAGCATAAGAGT (all phosphorothioate, sugars by position and methylation of C not given here; 2'-MOE wings and deoxy gap) [ISIS 144498, 2′-MOE gapmer phosphorothioate antisense oligonucleotide to mouse MTP]”, the “% INHIB (inhibition of mouse microsomal triglyceride transfer protein mRNA levels)” value was “at least 30%”.
With “TGCACAACGGTGAGCATGTA (all phosphorothioate, sugars by position and methylation of C not given here; 2'-MOE wings and deoxy gap) [ISIS 144492, 2′-MOE gapmer phosphorothioate antisense oligonucleotide to mouse MTP]” the “% INHIB (inhibition of mouse microsomal triglyceride transfer protein mRNA levels)” value was “at least 30%”.
